One assay deals with mushroom tyrosinase (Agaricus bisporus, UniProt C7FF04). Nature of the assay: Kinetic studies on mushroom tyrosinase inhibition (Lineweaver–Burk and Dixon plots, L-DOPA substrate). Type of assay: biochemical. Details: purchased Sigma-Aldrich. The conditions noted are these: for Ki: Dixon plots, read-out: Ki (inhibition constant); for Inhibition type: Lineweaver–Burk plot. Here is the method: As depicted in Figure 2, the mechanisms of tyrosinase inhibition were analyzed using Lineweaver–Burk plots. […] Each of the four straight lines produced at each inhibitor concentration converged to a single point on the y-axis. […] In contrast, in derivative 3, four straight lines generated at each inhibitor concentration intersected at a point in the second quadrant. According to the Lineweaver–Burk plot, as the inhibitor concentration increased, the Vmax value of 3 decreased, but the KM value increased.
To determine the Ki (inhibition constant) values of (Z)-BPT derivatives 1–3, Lineweaver–Burk plots for 1–3 were transformed into the corresponding Dixon plots (Figure 3). Each Dixon plot obtained from each Lineweaver–Burk plot produced four straight lines that intersected at one point in the second quadrant. The vertical lines from the merge point to the x-axis provide the Ki value of each (Z)-BPT derivative.
To determine the mode of action, Lineweaver–Burk plots of (Z)-BPT derivatives 1–3 were acquired. In brief, 10 µL of (Z)-BPT derivatives 1–3 (final concentrations:0, 3, 6, or 12 µM for 1; 0, 0.05, 0.1, or 0.2 µM for 2; 0, 2.5, 5, or 10 µM for 3) was added to a 96-well plate containing a substrate mixture (170 µL) consisting of an aqueous solution of L-dopa at final concentrations of 0.5, 1.0, 2.0, or 4.0 mM and 14.7 mM potassium phosphate buffer (pH 6.5), and a mushroom tyrosinase aqueous solution (20 µL, 20 units). Using a microplate reader (VersaMax^TM, Molecular Devices, Sunnyvale, CA, USA) to measure the increase in absorbance at a wavelength of 492 nm (ΔOD492/min), the initial rate of dopachrome synthesis in the reaction mixture was estimated. Using five different concentrations of L-dopa, Lineweaver–Burk plots (inverse of the response rate (1/V) vs. inverse of L-dopa concentration (1/(S)) were created. The convergence points of the four plot lines were used to define the mode of action of tyrosinase inhibition.
Figure 2 Lineweaver–Burk plots for the inhibition of mushroom tyrosinase activity by (Z)-BPT derivatives 1–3. […] Three independent experiments with five different concentrations (0.5, 1, 2, 4, and 8 mM) of an L-DOPA substrate were used to measure the augmented dopachrome optical density per minute at 492 nm. The data are shown as mean values of 1/V (an inverse of that optical density per minute). The (Z)-BPT derivatives were used at concentrations of 0 (filled circles), 3 (unfilled circles), 6 (filled triangles), and 12 µM (unfilled triangles) for 1; 0 (filled circles), 0.05 (unfilled circles), 0.1 (filled triangles), and 0.2 µM (unfilled triangles) for 2; and 0 (filled circles), 2.5 (unfilled circles), 5 (filled triangles), and 10 µM (unfilled triangles) for 3. Each experiment was run independently in triplicates.
Figure 3 Dixon plots for the inhibition of mushroom tyrosinase activity by (Z)-BPT derivatives 1–3. The Ki values of (Z)-BPT derivatives 1–3 were obtained from the absolute values of the x-coordinate where four straight lines converged at one point. Three independent experiments with four different concentrations of (Z)-BPT derivatives were conducted to measure the augmented dopachrome optical density per minute at 492 nm. The data are shown as the mean values of 1/V (an inverse of that optical density per minute). The (Z)-BPT derivatives were used at concentrations of 0, 3, 6, and 12 µM for 1; 0, 0.05, 0.1, and 0.2 µM for 2; and 0, 2.5, 5, and 10 µM for 3. The experiments were performed at four different concentrations (0.5, 1, 2, and 4 mM) of L-DOPA. Each experiment was run independently in triplicates.

A short description of assay [1]: DPPH radical scavenging assay. The conditions noted are these: 1 mM, 30 min in the dark. Here is the method: The 2,2-diphenyl-1-picrylhydrazyl (DPPH) radical scavenging capacity of the (Z)-BPT derivatives (1 mM) was investigated using L-ascorbic acid (1 mM, vitamin C) as a positive control. […] L-Ascorbic acid scavenged 97.1% of the DPPH radical, whereas (Z)-BPT derivative 1 with a 4-hydroxyl substituent on the β-phenyl ring scavenged 46.5% of the DPPH radical.
The antioxidant properties of (Z)-BPT derivatives 1–14 against DPPH (2,2-diphenyl-1-picrylhydrazyl) radicals were examined using a DPPH radical scavenging assay, as previously described with minor modifications. DPPH solution (180 µL, 0.2 mM) in methanol was mixed with a (Z)-BPT derivative solution (1–14, 20 µL, 10 mM) in dimethyl sulfoxide in each well of a 96-well plate, and the mixture was kept for 30 min in the dark at room temperature. The absorbance at 517 nm was measured using a VersaMax ™ microplate reader (Molecular Devices, Sunnyvale, CA, USA). The capacity of the derivatives to scavenge DPPH radicals was compared with that of L-ascorbic acid, which was used as the positive control. Each experiment was run independently in triplicates.
Figure 10 The radical scavenging effect of (Z)-BPT derivatives on DPPH. The DPPH radical scavenging activities of test samples (1 mM) were assayed after being left in the dark for 30 min. Distilled water and dimethyl sulfoxide (DMSO) were utilized as the solvents for the positive control L-ascorbic acid and the (Z)-BPT derivatives, respectively. Asterisks (***) represent a significant difference between L-ascorbic acid and the (Z)-BPT derivatives, and results are expressed as the mean ± standard error of three different experiments. *** p < 0.001.
A general note: The DPPH test is a chemical assay of radical scavenging.

One may read the Ki as the equilibrium dissociation constant of an inhibitor or competing ligand from its target.

Sequence of mushroom tyrosinase (C7FF04 1-392 limits assumed): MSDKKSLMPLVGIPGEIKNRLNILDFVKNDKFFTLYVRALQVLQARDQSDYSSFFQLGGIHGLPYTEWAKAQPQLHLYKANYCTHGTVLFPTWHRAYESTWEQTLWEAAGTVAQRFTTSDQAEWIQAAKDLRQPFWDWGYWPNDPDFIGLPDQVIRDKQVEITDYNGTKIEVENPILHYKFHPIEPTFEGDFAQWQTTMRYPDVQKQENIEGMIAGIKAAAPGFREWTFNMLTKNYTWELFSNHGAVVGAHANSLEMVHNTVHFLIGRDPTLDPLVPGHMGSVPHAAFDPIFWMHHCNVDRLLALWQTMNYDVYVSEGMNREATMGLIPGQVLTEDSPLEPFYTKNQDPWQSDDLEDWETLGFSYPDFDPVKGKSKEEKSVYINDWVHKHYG

With `O=C1N=C(c2ccccc2)S/C1=C\c1ccc(O)cc1` [Compound 1, (Z)-5-(4-Hydroxybenzylidene)-2-phenylthiazol-4(5H)-one], on mushroom tyrosinase, the Ki came out at 8.89 µM and the Inhibition type entry is given as “Competitive”. Moreover, the “DPPH radical scavenging activity” value in assay [1] came to 46.5%.
On to `O=C1N=C(c2ccccc2)S/C1=C\c1ccc(O)cc1O` [Compound 2, (Z)-5-(2,4-Dihydroxybenzylidene)-2-phenylthiazol-4(5H)-one], for which, on mushroom tyrosinase, the Ki is 0.1 µM and the Inhibition type result is “Competitive”. Also, in assay [1], the “DPPH radical scavenging activity” value worked out at 66.9%.

(Values after PMC10144242, “Design, Synthesis, In Vitro, and In Silico Insights of 5-(Substituted benzylidene)-2-phenylthiazol-4(5H)-one Derivatives: A Novel Class of Anti-Melanogenic Compounds” (Molecules, 2023).)
